Source: patent US20210317140A1, “Heterocyclic Compounds and Methods of Use” (MEDIVATION TECHNOLOGIES, INC, priority 2013, published 2021)

How the values were obtained:
BMX/ETK = target: T1, BMX/ETK (Homo sapiens, UniProt P51813); experiment: BMX/ETK kinase profiling (BTK protocol); assay type: biochemical; conditions: for IC50: 10 dose IC50; for BMX/ETK @ 0.3 μM (% Inh): 0.3 μM compound
T1 construct: purchased Reaction Biology Corporation
T1 sequence (P51813 1-675): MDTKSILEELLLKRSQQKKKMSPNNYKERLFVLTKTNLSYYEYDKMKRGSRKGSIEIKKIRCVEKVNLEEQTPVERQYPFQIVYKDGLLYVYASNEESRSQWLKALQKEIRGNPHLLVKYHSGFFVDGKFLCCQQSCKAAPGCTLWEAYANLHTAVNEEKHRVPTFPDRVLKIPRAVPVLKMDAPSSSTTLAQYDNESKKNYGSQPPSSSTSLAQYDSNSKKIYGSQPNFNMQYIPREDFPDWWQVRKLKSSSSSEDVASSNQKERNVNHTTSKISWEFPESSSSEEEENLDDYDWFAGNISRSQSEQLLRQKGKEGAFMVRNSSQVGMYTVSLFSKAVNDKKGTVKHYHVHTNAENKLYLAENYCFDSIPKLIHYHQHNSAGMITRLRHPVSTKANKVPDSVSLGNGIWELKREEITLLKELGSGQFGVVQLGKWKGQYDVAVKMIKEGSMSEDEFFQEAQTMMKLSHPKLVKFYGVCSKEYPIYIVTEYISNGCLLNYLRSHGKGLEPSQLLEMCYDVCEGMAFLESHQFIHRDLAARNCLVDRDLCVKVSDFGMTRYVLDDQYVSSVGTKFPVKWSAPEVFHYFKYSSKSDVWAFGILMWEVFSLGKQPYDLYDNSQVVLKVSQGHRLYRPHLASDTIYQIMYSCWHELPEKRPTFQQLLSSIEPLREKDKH
Procedure: BTK assay: In vitro profiling protein kinases was performed using the “HotSpot” assay platform. Briefly, specific kinase/substrate pairs along with required cofactors were prepared in reaction buffer. Compounds were prepared as 10 mM stock solutions in DMSO. Compounds were delivered into the reaction, followed 15-20 minutes later by addition of a mixture of ATP (Sigma, St. Louis Mo.) and ^33P ATP (Perkin Elmer, Waltham Mass.) to a final concentration of 10 μM. Reactions were carried out at RT for 120 min, followed by spotting of the reactions onto P81 ion exchange filter paper (Whatman Inc., Piscataway, N.J.). Unbound phosphate was removed by extensive washing of filters in 0.75% Phosphoric acid. […] IC50 values and curve fits were obtained using Prism (GraphPad Software). Buffer Conditions: 20 mM Hepes (pH 7.5), 10 mM MgCl2, 1 mM EGTA, 0.02% Brij35, 0.02 mg/mL BSA, 0.1 mM Na3VO4, 2 mM DTT, 1% DMSO.
Compounds of the invention were profiled in a 10 dose IC50 panel against BMX/ETK, ITK and TEC kinases, provided by Reaction Biology Corporation, applied to the BTK protocol provided in Example B1.

PI3Kα = target: T2, PI3Kα (Homo sapiens, UniProt P42336); experiment: PI3Kα isoform profiling (PI3Kδ protocol); assay type: biochemical; conditions: for IC50: 10 dose IC50
T2 construct: purchased Reaction Biology Corporation
Description: PI3Kδ assay: The PIP3 product is detected by displacement of biotin-PIP3 from an energy transfer complex consisting of Europium labeled anti-GST monoclonal antibody, a GST-tagged pleckstrin homology (PH) domain, biotinylated PIP3 and Streptavidin-Allophycocyanin (APC). Excitation of Europium in the complex results in an energy transfer to the APC and a fluorescent emission at 665 nm. The PIP3 product formed by PI 3-Kinase(h) activity displaces biotin-PIP3 from the complex resulting in a loss of energy transfer and thus a decrease in signal. This is a 3-step reaction: First, the kinase reaction with PIP2 substrate is carried out in the presence of ATP (10 μM), and the reaction is quenched with stop Solution, and then finally detect by adding Detection Mixture followed by incubation (10 min). Reaction procedure: 1) Prepare substrate in freshly prepared Reaction Buffer. 2) Deliver kinase into the substrate solution and gently mix. 3) Deliver compounds in 100% DMSO (1 μM) into the kinase reaction mixture by Acoustic technology (Echo550; nanoliter range), incubate for 10 min at RT. 4) Deliver ATP into the reaction mixture to initiate the reaction. 5) Incubate for 30 min at 30° C. 6) Quench the reaction with Stop Solution. 7) Add Detection Mixture, and incubate for overnight. 8) Measure HTRF: Ex=320 nm, ratio of Em=615 nm and Em=665 nm. The emission ratio is converted into μM PIP3 production based on PIP3 standard curves. The nonlinear regression to obtain the standard curve and IC50 values are performed using Graphpad Prism software. Assay Buffer: HEPES 50 mM (pH7.0), NaN3 0.02%, BSA 0.01%, Orthovanadate 0.1 mM, 1% DMSO. Detection buffer: HEPES 10 mM (pH7.0), BSA 0.02%, KF 0.16 M, EDTA 4 mM. Substrate: 10 μM PIP2 substrate (PI(4,5)P2).
Compounds of the invention were profiled in a 10 dose IC50 panel against PI3Kα, PI3Kβ, and PI3Kγ kinases, provided by Reaction Biology Corporation, applied to the PI3Kδ protocol provided in Example B1.

T2 sequence (P42336 whole entry, canonical isoform): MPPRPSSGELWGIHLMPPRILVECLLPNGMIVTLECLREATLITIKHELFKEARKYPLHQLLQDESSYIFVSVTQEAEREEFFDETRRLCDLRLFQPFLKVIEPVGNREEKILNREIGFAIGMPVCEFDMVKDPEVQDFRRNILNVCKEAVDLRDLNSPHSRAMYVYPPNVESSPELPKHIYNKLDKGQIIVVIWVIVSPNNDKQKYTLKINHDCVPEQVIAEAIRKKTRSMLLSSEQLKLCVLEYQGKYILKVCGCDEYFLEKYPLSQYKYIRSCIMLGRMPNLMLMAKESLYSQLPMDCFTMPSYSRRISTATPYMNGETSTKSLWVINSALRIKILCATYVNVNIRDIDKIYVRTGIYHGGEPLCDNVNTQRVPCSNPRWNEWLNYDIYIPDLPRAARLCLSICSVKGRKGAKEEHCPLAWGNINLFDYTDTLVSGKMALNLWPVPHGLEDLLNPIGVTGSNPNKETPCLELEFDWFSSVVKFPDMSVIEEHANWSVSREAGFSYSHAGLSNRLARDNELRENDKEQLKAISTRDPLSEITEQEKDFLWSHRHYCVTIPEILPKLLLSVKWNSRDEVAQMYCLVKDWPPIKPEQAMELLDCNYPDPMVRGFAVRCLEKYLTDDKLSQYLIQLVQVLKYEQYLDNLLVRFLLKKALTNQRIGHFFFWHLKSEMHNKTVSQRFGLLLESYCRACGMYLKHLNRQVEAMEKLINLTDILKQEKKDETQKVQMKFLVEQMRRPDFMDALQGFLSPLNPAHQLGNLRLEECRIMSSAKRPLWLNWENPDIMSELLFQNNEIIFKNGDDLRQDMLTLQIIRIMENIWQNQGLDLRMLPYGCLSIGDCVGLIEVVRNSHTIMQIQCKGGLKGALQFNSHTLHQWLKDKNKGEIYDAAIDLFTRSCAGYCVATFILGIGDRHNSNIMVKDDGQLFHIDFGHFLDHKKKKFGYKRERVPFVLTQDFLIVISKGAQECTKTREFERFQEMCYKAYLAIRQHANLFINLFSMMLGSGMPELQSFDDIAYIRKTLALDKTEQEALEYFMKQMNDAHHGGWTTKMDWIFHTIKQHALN
T2 sequence (P27986 whole entry partner, canonical isoform): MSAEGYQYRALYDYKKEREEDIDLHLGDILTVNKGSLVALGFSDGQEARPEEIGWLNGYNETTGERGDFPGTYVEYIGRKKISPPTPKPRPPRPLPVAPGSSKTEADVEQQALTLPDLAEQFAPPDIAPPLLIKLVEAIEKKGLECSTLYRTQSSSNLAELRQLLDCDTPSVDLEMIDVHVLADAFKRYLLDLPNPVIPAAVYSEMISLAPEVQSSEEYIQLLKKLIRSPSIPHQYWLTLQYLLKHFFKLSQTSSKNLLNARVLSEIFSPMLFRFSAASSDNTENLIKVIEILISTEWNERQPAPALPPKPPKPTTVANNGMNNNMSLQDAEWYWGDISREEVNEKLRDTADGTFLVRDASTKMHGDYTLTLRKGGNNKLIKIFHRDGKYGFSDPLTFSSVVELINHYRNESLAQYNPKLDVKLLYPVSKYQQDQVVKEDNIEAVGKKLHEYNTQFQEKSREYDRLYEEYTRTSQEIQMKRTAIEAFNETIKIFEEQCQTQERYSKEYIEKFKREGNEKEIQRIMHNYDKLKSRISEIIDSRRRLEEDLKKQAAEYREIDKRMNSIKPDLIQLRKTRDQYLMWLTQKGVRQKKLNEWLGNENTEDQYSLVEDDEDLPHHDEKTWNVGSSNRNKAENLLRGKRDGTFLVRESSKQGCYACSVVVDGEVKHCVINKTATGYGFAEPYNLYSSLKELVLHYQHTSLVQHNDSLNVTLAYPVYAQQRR

With `Nc1ncnc2c1c(-c1cc(O)cc(F)c1)nn2C1Cc2ccccc2C1` [compound 3, 3-(4-amino-1-(2,3-dihydro-1H-inden-2-yl)-1H-pyrazolo[3,4-d]pyrimidin-3-yl)-5-fluorophenol] the IC50 (BMX/ETK) was 0.189 µM and the IC50 (PI3Kα) was 0.0201 µM.
`Nc1ncnc2c1c(-c1cc(O)cc(F)c1)nn2C1CCc2ccccc2C1` (stereo not drawn) [compound 6, 3-(4-amino-1-(1,2,3,4-tetrahydronaphthalen-2-yl)-1H-pyrazolo[3,4-d]pyrimidin-3-yl)-5-fluorophenol] showed an IC50 (BMX/ETK) of 0.184 µM and an IC50 (PI3Kα) of 0.0201 µM.
With `C=CC(=O)N1CC(n2nc(-c3cc(O)cc(F)c3)c3c(N)ncnc32)Cc2cc(C)ccc21` (stereo not drawn) [compound 31, 1-(3-(4-amino-3-(3-fluoro-5-hydroxyphenyl)-1H-pyrazolo[3,4-d]pyrimidin-1-yl)-6-methyl-3,4-dihydroquinolin-1(2H)-yl)prop-2-en-1-one] the “BMX/ETK @ 0.3 μM (% Inh)” value (BMX/ETK) was 89.72 % Inh, the IC50 (BMX/ETK) was 6.4 µM and the “PI3Kα @ 0.3 μM (% Inh)” value (PI3Kα; 0.3 μM compound) was 50.6 % Inh. It also gave an IC50 (PI3Kα) of 0.539 µM.
With `Nc1ncnc2c1c(-c1cc(O)cc(F)c1)nn2C1Cc2ccc(F)cc2C1` (stereo not drawn) [compound 57, 3-[4-amino-1-(5-fluoro-2,3-dihydro-1H-inden-2-yl)-1H-pyrazolo[3,4-d]pyrimidin-3-yl]-5-fluorophenol] the “BMX/ETK @ 0.3 μM (% Inh)” value (BMX/ETK) was 74.27 % Inh and the IC50 (PI3Kα) was 0.0711 µM.
In the case of `Nc1ncnc2c1c(-c1cc(O)c(F)c(Cl)c1)cn2C1Cc2ccccc2C1` [compound 110, 5-[4-amino-7-(2,3-dihydro-1H-inden-2-yl)-7H-pyrrolo[2,3-d]pyrimidin-5-yl]-3-chloro-2-fluorophenol], the “BMX/ETK @ 0.3 μM (% Inh)” value (BMX/ETK) is reported as 92.59 % Inh and the IC50 (PI3Kα) is reported as 0.0835 µM.
